Values of other authors in publication PMC12029179, “6-Chlorocoumarin Conjugates with Nucleobases and Nucleosides as Potent Anti-Hepatitis C Virus Agents” (Molecules, 2025).

System: subgenomic HCV genotype 1b replicon
Set-up: method as in PMID 30951311
Conditions: cited from earlier work

CC(C)OC(=O)[C@H](C)N[P@](=O)(OC[C@@]1(F)O[C@@H](n2ccc(=O)[nH]c2=O)[C@](C)(O)[C@@H]1O)Oc1ccccc1 [AL-335]
EC50: 0.07 µM
